The values that follow come from ChEMBL document CHEMBL1201862, “PubChem BioAssay data set” (2004).

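Five concentrations, 48 hours, 96-well plates. GI50 = concentration required for 50% inhibition of growth.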 Activity calls are given as the source filed them. No stated cut-off is given here; in the data, active = GI50 up to about 1.1 µM and inactive = higher. Some results are limits rather than exact numbers.

Among the test systems are NCI/ADR-RES; EKVX; SF-539; DU-145; 786-0; UACC-257; NCI-H522; NCI-H460; SW-620; UO-31; OVCAR-4; HCT-116; Hs-578T; NCI-H23; OVCAR-8; MOLT-4; NCI-H226; ACHN; U-251; A498.
Assay in all cases: DTP human tumour cell line panel, 48 h

Regarding `OCC1C(OCc2ccccc2)C(OCc2ccccc2)C(OCc2ccccc2)CN1Cc1ccccc1` (stereo unspecified), the GI50 (usually the concentration at which growth is held to half of that of the control) in the test on NCI/ADR-RES is 26.7 µM (inactive); with EKVX it was 84.9 µM (inactive); in the test with SF-539, 73.5 µM (inactive); in the test on DU-145 it was > 100 µM (inactive); in the test with 786-0, 26.3 µM (inactive); with UACC-257 it was 19.6 µM (inactive). The GI50 in the test on NCI-H522 is 27.4 µM (inactive); with NCI-H460, 14.5 µM (inactive); with SW-620, 53 µM (inactive); in the test with UO-31, 18.4 µM (inactive); with OVCAR-4 it was 46.7 µM (inactive); with HCT-116 it was 17.3 µM (inactive). Besides, the GI50 in the test on Hs-578T was 24.6 µM (inactive); in the test with NCI-H23 it was 15.4 µM (inactive); in the test with OVCAR-8 it was 29.9 µM (inactive); in the test on MOLT-4, 7.62 µM (inactive); in the test on NCI-H226 it was 33.8 µM (inactive); in the test with ACHN, 3.38 µM (inactive). Moreover, in the test with U-251, the GI50 was 27.3 µM (inactive).

For `COc1ccc(CCCCNCc2cccc(CNCCCCc3ccc(OC)cc3)c2)cc1`, the GI50 in the test with NCI/ADR-RES was 1.8 µM (inactive); in the test on EKVX, 1.81 µM (inactive); with SF-539 it was 1.96 µM (inactive); with DU-145 it was 1.88 µM (inactive); in the test with 786-0, 2.1 µM (inactive); with UACC-257, 2.59 µM (inactive). Besides, the GI50 in the test with NCI-H522 is 1.88 µM (inactive); in the test on NCI-H460, 2.39 µM (inactive); in the test with SW-620, 2.23 µM (inactive); in the test on UO-31 it was 1.35 µM (inactive); with OVCAR-4, 2.03 µM (inactive); in the test on HCT-116, 1.94 µM (inactive). The GI50 in the test with Hs-578T was 1.69 µM (inactive); with NCI-H23, 1.78 µM (inactive); in the test with OVCAR-8 it was 1.8 µM (inactive); with MOLT-4, 2.18 µM (inactive); in the test on NCI-H226 it was 0.385 µM (active); with ACHN, 1.83 µM (inactive). Besides, the GI50 with U-251 was 1.85 µM (inactive).

Turning to `NC(=O)c1cn(C2OC(CO)C(O)C2O)c2nc[n+]([O-])c(N)c12` (stereo unspecified), the GI50 in the test on NCI/ADR-RES was 0.107 µM (active); with EKVX, 1.21 µM (inactive); in the test on SF-539, 0.321 µM (active); with DU-145, 0.104 µM (active); in the test on 786-0 it was 0.126 µM (active); in the test on UACC-257, 0.244 µM (active). Besides, the GI50 in the test with NCI-H522 is 1.36 µM (inactive); with NCI-H460 it was 0.446 µM (active); in the test with SW-620 it was 0.0409 µM (active); in the test on UO-31 it was 0.382 µM (active); with OVCAR-4 it was 0.201 µM (active); in the test on HCT-116, 0.0206 µM (active). The GI50 in the test on Hs-578T is 0.951 µM (active); with NCI-H23, 0.121 µM (active); in the test on OVCAR-8, 0.094 µM (active); with MOLT-4, 0.104 µM (active); in the test on NCI-H226 it was 0.211 µM (active); with ACHN, 0.0351 µM (active). Further, the GI50 in the test with U-251 is 0.285 µM (active).

Turning to `C=CCOn1c(C=C)nc2c(C)cccc21`, the GI50 in the test with NCI/ADR-RES was 3.12 µM (inactive); with EKVX, 13.5 µM (inactive); with 786-0, 2.18 µM (inactive); in the test with UACC-257 it was 2.99 µM (inactive); with NCI-H522, 2.29 µM (inactive); with NCI-H460, 2.32 µM (inactive). For the same compound, the GI50 in the test on SW-620 is 3.2 µM (inactive); in the test with UO-31, 2.43 µM (inactive); in the test on OVCAR-4 it was 8.89 µM (inactive); with HCT-116, 2.01 µM (inactive); in the test on A498, 5.66 µM (inactive); in the test with Hs-578T, 4.98 µM (inactive). The GI50 in the test on NCI-H23 was 7.74 µM (inactive); with OVCAR-8, 2.85 µM (inactive); in the test with MOLT-4, 3.64 µM (inactive); with NCI-H226, 5.47 µM (inactive); in the test with ACHN, 2.62 µM (inactive); in the test with U-251 it was 1.98 µM (inactive).

Consider `CCOC(=O)NC(=S)NN(C)C1=NCC(C)(C)S1`, for which the GI50 in the test with EKVX, with SF-539, in the test with DU-145, in the test with 786-0, in the test with UACC-257 and in the test on NCI-H522 was > 100 µM (inactive) each time. The GI50 in the test with NCI-H460, with SW-620, in the test with UO-31, in the test with HCT-116, with A498 and in the test with Hs-578T was > 100 µM (inactive) in each case. For the same compound, the GI50 in the test on MOLT-4, in the test with ACHN and in the test on U-251 was > 100 µM (inactive) throughout.

Consider `COC(=O)C(/C(=N/N)C(=O)Nc1ccc(C)c(C)c1)c1nc2ccc(Cl)cc2nc1O` (stereo unspecified), for which the GI50 was > 100 µM (inactive) in the test with NCI/ADR-RES; 74.5 µM (inactive) with EKVX; > 100 µM (inactive) in the test on SF-539; > 100 µM (inactive) with 786-0; > 100 µM (inactive) in the test with UACC-257; > 100 µM (inactive) with NCI-H522. Besides, the GI50 is > 100 µM (inactive) with NCI-H460; > 100 µM (inactive) in the test with SW-620; 28.4 µM (inactive) with UO-31; > 100 µM (inactive) in the test on OVCAR-4; > 100 µM (inactive) in the test with HCT-116; > 100 µM (inactive) in the test with A498. For the same compound, the GI50 was > 100 µM (inactive) with Hs-578T; > 100 µM (inactive) in the test with NCI-H23; > 100 µM (inactive) with OVCAR-8; > 100 µM (inactive) in the test with MOLT-4; > 100 µM (inactive) in the test on NCI-H226; 40.3 µM (inactive) in the test on ACHN. Also, in the test with U-251, the GI50 was > 100 µM (inactive).

In the case of `CC(=O)N1C(Nc2ccccc2)CCN1c1ccccc1` (stereo unspecified), the GI50 in the test with NCI/ADR-RES is 9.89 µM (inactive); in the test on EKVX it was > 10 µM (inactive); with SF-539 it was 5.19 µM (inactive); with DU-145, > 10 µM (inactive); in the test on 786-0, > 10 µM (inactive); in the test with UACC-257 it was > 10 µM (inactive). Further, the GI50 was > 10 µM (inactive) in the test on NCI-H522; > 10 µM (inactive) in the test on NCI-H460; 5.64 µM (inactive) in the test on SW-620; 4.45 µM (inactive) in the test with UO-31; > 10 µM (inactive) with OVCAR-4; > 10 µM (inactive) in the test with HCT-116. The GI50 is > 10 µM (inactive) in the test with Hs-578T; > 10 µM (inactive) in the test on NCI-H23; > 10 µM (inactive) with OVCAR-8; 9.77 µM (inactive) with MOLT-4; > 10 µM (inactive) in the test on NCI-H226; 4.22 µM (inactive) in the test on ACHN.

`CC(C)(C)OC(=O)NCCCCC(NC(=O)OCc1ccccc1)C(N)=O` (stereo unspecified): the GI50 with NCI/ADR-RES is > 100 µM (inactive); with EKVX, 82.2 µM (inactive); with SF-539, > 100 µM (inactive); in the test on DU-145, > 100 µM (inactive); in the test with 786-0, > 100 µM (inactive); in the test on UACC-257 it was > 100 µM (inactive). The GI50 with NCI-H522, in the test on NCI-H460, with SW-620, in the test with UO-31, in the test on OVCAR-4 and in the test on HCT-116 was > 100 µM (inactive) each time. Further, the GI50 in the test on Hs-578T, in the test with NCI-H23, in the test on OVCAR-8, in the test on MOLT-4, with NCI-H226 and with ACHN was > 100 µM (inactive) throughout. In addition, the GI50 in the test on U-251 was > 100 µM (inactive).

Consider `O=[N+]([O-])c1ccc2[nH]c(-c3ccc(Cl)cc3)nc2c1`, for which the GI50 in the test on NCI/ADR-RES was 21.2 µM (inactive); in the test with EKVX, 14.4 µM (inactive); in the test on SF-539, 21.1 µM (inactive); in the test with DU-145 it was 25.2 µM (inactive); with 786-0 it was 33 µM (inactive); with UACC-257 it was 20.5 µM (inactive). Further, the GI50 with NCI-H522 was 12.6 µM (inactive); in the test with NCI-H460 it was 19.5 µM (inactive); in the test with SW-620 it was 32.7 µM (inactive); in the test with UO-31, 23.9 µM (inactive); in the test with OVCAR-4, 32.7 µM (inactive); with HCT-116 it was 17.3 µM (inactive). For the same compound, the GI50 in the test on Hs-578T was 25.5 µM (inactive); with NCI-H23, 25.3 µM (inactive); in the test with OVCAR-8, 30.1 µM (inactive); in the test on MOLT-4 it was 25.4 µM (inactive); with NCI-H226 it was 22.3 µM (inactive); in the test on ACHN, 26.8 µM (inactive).

As for `O=c1[nH]cnc2c(C3OC(CO)C(O)C3O)c[nH]c12` (stereo unspecified), the GI50 in the test on EKVX, in the test on SF-539, in the test with DU-145, in the test on 786-0, with UACC-257 and with NCI-H522 was > 100 µM (inactive) in each case. For the same compound, the GI50 with NCI-H460, with SW-620, in the test on UO-31, in the test with OVCAR-4, in the test with HCT-116 and in the test on Hs-578T was > 100 µM (inactive) in each case. Besides, the GI50 with NCI-H23, in the test on OVCAR-8, with MOLT-4, in the test with NCI-H226, in the test on ACHN and in the test with U-251 was > 100 µM (inactive) throughout.

Turning to `C[C@H]1[C@H](C)N(Cc2ccccc2)P(=O)(C(O)/C=C/c2ccccc2)N1Cc1ccccc1` (stereo partly specified), the GI50 with NCI/ADR-RES was 10.4 µM (inactive); in the test with EKVX, 7.67 µM (inactive); in the test on SF-539, 5.07 µM (inactive); with 786-0 it was 5.32 µM (inactive); in the test on UACC-257, 5.42 µM (inactive); with NCI-H522, 5.83 µM (inactive). For the same compound, the GI50 in the test with NCI-H460 was 3.72 µM (inactive); with SW-620, 9.25 µM (inactive); in the test on UO-31, 5.27 µM (inactive); with OVCAR-4, 5.04 µM (inactive); in the test on HCT-116, 5.21 µM (inactive); in the test on A498 it was 5.45 µM (inactive). Besides, the GI50 is 4.79 µM (inactive) in the test on Hs-578T; 9.84 µM (inactive) in the test with NCI-H23; 8.53 µM (inactive) with OVCAR-8; 8.73 µM (inactive) in the test on MOLT-4; 7.52 µM (inactive) with NCI-H226; 8.47 µM (inactive) with ACHN. In addition, in the test on U-251, the GI50 is 5.11 µM (inactive).
